{"source": "the Kinase Knowledgebase extract (Sharma et al. 2016)"}
{"target": "PIK3CG (human) (UniProt P48736)", "sequence (P48736 whole entry, looked up)": "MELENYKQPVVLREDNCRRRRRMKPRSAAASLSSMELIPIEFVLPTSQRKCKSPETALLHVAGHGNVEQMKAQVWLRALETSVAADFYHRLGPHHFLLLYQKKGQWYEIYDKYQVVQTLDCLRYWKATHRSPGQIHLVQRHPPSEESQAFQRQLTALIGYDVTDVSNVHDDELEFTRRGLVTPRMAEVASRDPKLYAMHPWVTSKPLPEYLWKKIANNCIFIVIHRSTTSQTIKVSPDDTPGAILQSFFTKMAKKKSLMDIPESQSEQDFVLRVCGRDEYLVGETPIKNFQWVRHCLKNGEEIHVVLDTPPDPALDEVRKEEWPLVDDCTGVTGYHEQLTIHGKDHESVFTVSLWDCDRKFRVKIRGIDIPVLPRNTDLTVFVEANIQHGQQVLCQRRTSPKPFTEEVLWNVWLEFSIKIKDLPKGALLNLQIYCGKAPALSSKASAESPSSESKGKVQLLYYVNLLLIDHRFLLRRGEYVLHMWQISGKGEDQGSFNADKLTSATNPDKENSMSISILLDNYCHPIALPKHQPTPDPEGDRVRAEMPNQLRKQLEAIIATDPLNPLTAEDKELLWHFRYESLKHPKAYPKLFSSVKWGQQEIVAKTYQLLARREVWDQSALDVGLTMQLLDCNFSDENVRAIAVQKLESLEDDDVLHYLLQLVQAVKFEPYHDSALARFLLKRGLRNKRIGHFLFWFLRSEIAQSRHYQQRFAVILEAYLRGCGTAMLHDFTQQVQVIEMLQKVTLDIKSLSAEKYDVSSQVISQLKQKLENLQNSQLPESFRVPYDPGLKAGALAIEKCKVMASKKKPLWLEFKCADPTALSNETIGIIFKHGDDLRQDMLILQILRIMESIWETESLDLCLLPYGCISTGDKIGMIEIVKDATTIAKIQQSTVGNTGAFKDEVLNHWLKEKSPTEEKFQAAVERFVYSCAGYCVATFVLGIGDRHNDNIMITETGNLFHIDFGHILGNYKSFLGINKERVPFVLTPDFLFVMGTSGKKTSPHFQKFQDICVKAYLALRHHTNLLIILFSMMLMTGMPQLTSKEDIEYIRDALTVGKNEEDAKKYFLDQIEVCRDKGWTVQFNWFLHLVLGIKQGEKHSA", "assay": "Assessment of PIK3CG Kinase Activity", "units": {"IC50": "nM"}}
{"smiles": "CC(=O)Nc1nc2c(s1)-c1c(cnn1-c1ccc(C(=O)Nc3ccc(N4CCN(C)CC4)cc3)cc1Cl)CC2", "IC50": "< 800"}
{"smiles": "CC(=O)Nc1nc2c(s1)-c1c(cnn1-c1ccc(C(=O)NC3CCOC3=O)cc1)CC2", "note": "(stereo not drawn)", "IC50": "< 800"}
{"smiles": "CNC(=O)c1nn(-c2ccccc2Cl)c2c1CCc1nc(NC(C)=O)sc1-2", "IC50": "< 800"}
{"smiles": "O=C(CNC[C@H](O)[C@@H](O)[C@H](O)[C@H](O)CO)Nc1nc2c(s1)-c1c(cnn1-c1ccccc1)CC2", "IC50": "< 800"}
{"smiles": "CC(=O)Nc1nc2c(s1)-c1nc(Cc3c(Cl)cccc3Cl)ncc1CC2", "IC50": "< 800"}
{"smiles": "CC(=O)Nc1nc2c(s1)-c1c(cnn1-c1ccc(CC(=O)N(C)C)cc1)CC2", "IC50": "< 800"}
{"smiles": "CN(C)CCCC(=O)Nc1nc2c(s1)-c1c(c(-c3ccccc3)nn1-c1ccccc1Cl)CC2", "IC50": "< 800"}
{"smiles": "CC(=O)Nc1nc2c(s1)-c1c(cnn1-c1ccc(CC(=O)O)cc1)CC2", "IC50": "< 800"}
{"smiles": "CC(=O)Nc1nc2c(s1)-c1c(cnn1-c1ccc(C(=O)NCCCCCCN)cc1)CC2", "IC50": "< 800"}
{"smiles": "CC(=O)Nc1nc2c(s1)-c1c(cnn1C(=O)c1ccccc1Cl)CC2", "IC50": "< 800"}
{"smiles": "CC(=O)Nc1nc2c(s1)-c1c(cnn1-c1ccc(C(=O)N3CCCC3c3ccncc3)cc1)CC2", "note": "(stereo not drawn)", "IC50": "< 800"}
{"smiles": "CC(=O)Nc1nc2c(s1)-c1c(cnn1CCC(C)C)CC2", "IC50": "< 800"}
{"smiles": "CC(=O)Nc1nc2c(s1)-c1c(cnn1-c1ccc(OC(F)(F)F)cc1)CC2", "IC50": "< 800"}
{"smiles": "CC(=O)Nc1nc2c(s1)-c1nn(C(N)=O)cc1CC2", "IC50": "< 800"}
{"smiles": "CC(=O)Nc1nc2c(s1)-c1nn(-c3ccccc3Br)c(-c3ccco3)c1CC2", "IC50": "< 800"}
{"smiles": "CC(=O)Nc1nc2c(s1)-c1c(c(C(C)C)nn1-c1ccc(C(=O)NCc3ccncc3)cc1Cl)CC2", "IC50": "< 800"}
{"smiles": "CC(=O)Nc1nc2c(s1)-c1nc(N3CCCC(CNC(=O)OC(C)(C)C)C3)ncc1CC2", "note": "(stereo not drawn)", "IC50": "< 800"}
{"smiles": "CC(=O)Nc1nc2c(s1)-c1c(cnn1-c1ccc(C(=O)NC(CN3CCOCC3)CN3CCOCC3)cc1)CC2", "IC50": "< 800"}
{"smiles": "COC(=O)c1nn(-c2ccccc2Cl)c2c1CCc1nc(NC(C)=O)sc1-2", "IC50": "< 800"}
{"smiles": "CC(=O)Nc1nc2c(s1)-c1c(cnn1-c1ccc(C(=O)N[C@@H](CC(=O)O)C(N)=O)cc1Cl)CC2", "IC50": "< 800"}
{"smiles": "COc1ccccc1-n1ncc2c1-c1sc(NC(C)=O)nc1CC2", "IC50": "< 800"}
{"smiles": "COc1ccccc1-n1nc(-c2ccccc2)c2c1-c1sc(NC(C)=O)nc1CC2", "IC50": "< 800"}
{"smiles": "CC(=O)Nc1nc2c(s1)-c1c(cnn1-c1ccc(C(=O)NC3CCN(C)CC3)cc1)CC2", "IC50": "< 800"}
{"smiles": "CC(=O)Nc1nc2c(s1)-c1c(c(C(N)=O)nn1-c1ccccc1Cl)CC2", "IC50": "< 800"}
{"smiles": "CC(=O)Nc1nc2c(s1)-c1c(c(-c3ccco3)nn1-c1ccc(C(=O)N(C)C)cc1Cl)CC2", "IC50": "< 800"}
{"smiles": "CC(=O)Nc1nc2c(s1)-c1c(cnn1-c1ccc(C(=O)NCCO)cc1)CC2", "IC50": "< 800"}
{"smiles": "CN(C)C(=O)Nc1nc2c(s1)-c1c(cnn1-c1ccccc1)CC2", "IC50": "< 800"}
{"smiles": "CC(=O)Nc1nc2c(s1)-c1c(cnn1-c1ccc(Cl)cc1Cl)CC2", "IC50": "< 800"}
{"smiles": "CC(=O)Nc1nc2c(s1)-c1c(cnn1-c1ccc(C(=O)N[C@H]3CC[C@H](N(C)C)CC3)cc1)CC2", "IC50": "< 800"}
{"smiles": "CC(=O)Nc1nc2c(s1)-c1nn(-c3ccccc3Cl)c(-c3ccoc3)c1CC2", "IC50": "< 800"}
{"smiles": "CC(=O)Nc1nc2c(s1)-c1c(c(-c3ccco3)nn1-c1ccccc1C(F)(F)F)CC2", "IC50": "< 800"}
{"smiles": "COCc1nn(-c2ccc(C(=O)NC3CCN(C)CC3)cc2Cl)c2c1CCc1nc(NC(C)=O)sc1-2", "IC50": "< 800"}
{"smiles": "CC(=O)Nc1nc2c(s1)-c1c(cnn1-c1ccc(C(=O)N3C[C@@H](C)O[C@@H](C)C3)cc1Cl)CC2", "IC50": "< 800"}
{"smiles": "CC(=O)Nc1nc2c(s1)-c1c(c(-c3ccco3)nn1-c1ccc(C(=O)NC3CCN(C)CC3)cc1Cl)CC2", "IC50": "< 800"}
{"smiles": "CC(=O)Nc1nc2c(s1)-c1c(c(C(C)C)nn1-c1ccc(C(=O)N(C)Cc3ccncc3)cc1Cl)CC2", "IC50": "< 800"}
{"smiles": "CC(=O)Nc1nc2c(s1)-c1c(cnn1-c1ccc(C(=O)N[C@H]3CC[C@@H](N4CCC(C)(C)CC4)CC3)cc1)CC2", "IC50": "< 800"}
{"smiles": "COc1ccc(-n2ncc3c2-c2sc(NC(C)=O)nc2C3)cc1", "IC50": "< 800"}
{"smiles": "CC(=O)Nc1nc2c(s1)-c1c(cnn1-c1cccc(Br)c1)CC2", "IC50": "< 800"}
{"smiles": "CC(=O)Nc1nc2c(s1)-c1nc(-c3ccc(C(=O)N(C)C)cc3)ncc1CC2", "IC50": "< 800"}
{"smiles": "NCC(=O)Nc1nc2c(s1)-c1c(cnn1-c1ccccc1)CC2", "IC50": "< 800"}
{"smiles": "C#CCN(C)C(=O)c1ccc(-n2ncc3c2-c2sc(NC(C)=O)nc2CC3)cc1", "IC50": "< 800"}
{"smiles": "CC(=O)Nc1nc2c(s1)-c1c(cnn1-c1ccc(C(=O)N[C@@H](CCS(C)(=O)=O)C(N)=O)cc1Cl)CC2", "IC50": "< 800"}
{"smiles": "CC(=O)Nc1nc2c(s1)-c1c(cnn1-c1ccc(C(=O)NCc3ccccc3O)cc1)CC2", "IC50": "< 800"}
{"smiles": "CCn1ncc2c1-c1sc(NC(C)=O)nc1CC2", "IC50": "< 800"}
{"smiles": "CC(=O)Nc1nc2c(s1)-c1c(c(NC(=O)Oc3ccccc3)nn1-c1ccccc1Cl)CC2", "IC50": "< 800"}
{"smiles": "CC(=O)Nc1nc2c(s1)-c1nc(N3CCC4(CN(C)C4)C3)ncc1CC2", "IC50": "< 800"}
{"smiles": "CC(=O)Nc1nc2c(s1)-c1c(c(C(C)C)nn1-c1ccccc1C(F)(F)F)CC2", "IC50": "< 800"}
{"smiles": "CC(=O)Nc1nc2c(s1)-c1c(cnn1-c1ccc(C(=O)N(C)CCO)cc1)CC2", "IC50": "< 800"}
